The target in assay [1] is T1, Thromboxane-A synthase (Homo sapiens, UniProt P24557).
T1 sequence (P24557 whole entry): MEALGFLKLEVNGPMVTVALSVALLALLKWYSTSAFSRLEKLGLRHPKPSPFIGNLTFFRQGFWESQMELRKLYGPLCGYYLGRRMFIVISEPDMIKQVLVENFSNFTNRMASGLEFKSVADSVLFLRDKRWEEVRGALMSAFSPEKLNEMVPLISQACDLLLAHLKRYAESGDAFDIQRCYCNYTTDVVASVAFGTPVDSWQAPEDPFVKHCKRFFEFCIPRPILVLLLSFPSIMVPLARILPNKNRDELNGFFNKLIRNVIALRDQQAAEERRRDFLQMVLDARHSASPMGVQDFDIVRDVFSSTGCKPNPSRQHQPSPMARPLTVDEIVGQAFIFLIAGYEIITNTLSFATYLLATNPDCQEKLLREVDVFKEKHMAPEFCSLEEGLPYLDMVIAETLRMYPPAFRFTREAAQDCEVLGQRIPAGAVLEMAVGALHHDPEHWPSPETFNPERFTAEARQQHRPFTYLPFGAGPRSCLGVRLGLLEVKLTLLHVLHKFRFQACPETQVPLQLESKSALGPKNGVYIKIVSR
Format: tissue-based, Blood.

In assay [2] the target is T2, Steroid 17-alpha-hydroxylase/17,20 lyase (Rattus norvegicus, UniProt P11715).
T2 sequence (P11715 whole entry): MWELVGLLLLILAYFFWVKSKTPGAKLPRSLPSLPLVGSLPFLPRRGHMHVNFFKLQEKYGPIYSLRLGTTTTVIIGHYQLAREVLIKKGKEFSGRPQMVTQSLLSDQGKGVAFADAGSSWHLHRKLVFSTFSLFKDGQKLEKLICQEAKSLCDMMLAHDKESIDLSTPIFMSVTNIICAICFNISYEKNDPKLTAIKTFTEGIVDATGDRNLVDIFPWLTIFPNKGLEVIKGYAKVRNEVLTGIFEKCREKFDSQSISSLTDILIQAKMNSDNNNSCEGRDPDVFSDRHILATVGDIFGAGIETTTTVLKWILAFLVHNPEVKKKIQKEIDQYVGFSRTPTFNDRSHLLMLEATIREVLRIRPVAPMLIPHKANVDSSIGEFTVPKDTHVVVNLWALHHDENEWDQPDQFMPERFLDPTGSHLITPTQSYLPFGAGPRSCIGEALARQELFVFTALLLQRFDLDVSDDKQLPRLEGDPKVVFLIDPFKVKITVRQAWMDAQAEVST

Assay [3] has as its target T2, Steroid 17-alpha-hydroxylase/17,20 lyase. The source holds these as a separate data set.
In assay [4] the target is T1, Thromboxane-A synthase.
For assay [5], the species on record is Bos taurus.
The species named for assay [6] is Bos taurus. The source holds these as a separate data set.
Another assay is described as follows: cells. As to conditions: Bos taurus. Format: functional.

Calls of active or inactive are those of the source. The rule behind the calls is not given here.

For the compound `c1cnc2c(c1)C(CCCn1ccnc1)CCC2` (stereo unspecified), the IC50 (in general, the concentration that gives 50% inhibition) on Thromboxane-A synthase [1] stood at 2.3 µM. Moreover, in assay [2], at 125 µM the inhibition was 59%.

As to `C1=C(CCCn2ccnc2)c2cccnc2CC1`, 0.68 µM corresponded to half-maximal inhibition against Thromboxane-A synthase [1] (IC50). Moreover, the inhibition (commonly how much of the control response was suppressed) at 125 µM in assay [2] is 79%.

With `c1ccc2c(c1)CCCC2CCn1ccnc1` (stereo unspecified), the IC50 against Thromboxane-A synthase [1] amounted to 3.4 µM; in assay [3], 20 µM. In assay [2], the inhibition at 125 µM is greater than 80%.

For `c1cc(CCn2ccnc2)c2cccnc2c1`, on Thromboxane-A synthase [1], half-maximal inhibition (IC50) was put at 1.2 µM. The compound further registered an inhibition at 125 µM in assay [2] of 22%.

In assay [2], `c1cnc2c(c1)C(n1ccnc1)CCC2` (stereo unspecified) had an inhibition at 125 µM of 14%.

Consider `c1cc2ccc(Cn3ccnc3)cc2cn1`, for which the midpoint of inhibition on Thromboxane-A synthase [1], the IC50, lay at 5.4 µM.

Regarding `O=C(OC1CCCc2ncccc21)n1ccnc1` (stereo unspecified), the IC50 on Thromboxane-A synthase [4] was 1.6 µM.

As to `C(/Cn1ccnc1)=C1\CCCc2occc21`, the IC50 on Thromboxane-A synthase [1] turned out to be 4.1 µM.

In turn, `C1=C(Cn2ccnc2)c2cccnc2CC1` had an IC50 against Thromboxane-A synthase [1] of 1.5 µM. In addition, in assay [2], the inhibition at 125 µM is 69%.

Consider `c1cnc2c(c1)C(CCn1ccnc1)CCC2` (stereo unspecified), for which the IC50 at Thromboxane-A synthase [1] worked out at 0.63 µM; in assay [3], 125 µM. For the same compound, the inhibition at 125 µM in assay [2] stood at 49%.

With `C1=C(CCn2ccnc2)c2cccnc2CC1`, the IC50 on Thromboxane-A synthase [1] came to 0.29 µM; in “cells”, 0.173 µM. Also, the NI entry in the assay listed under Bos taurus [5] and in the assay listed under Bos taurus [6] was “inactive” each time. This compound also yielded an inhibition at 125 µM in assay [2] of 21%.

In the case of `c1cn(CCC2CCCc3sccc32)cn1` (stereo unspecified), inhibition against Thromboxane-A synthase [1] was half-maximal at 1.23 µM (IC50).

With `C(/Cn1ccnc1)=C1/CCCc2occc21`, the IC50 at Thromboxane-A synthase [1] was determined as 3.55 µM.

Take `C(/Cn1ccnc1)=C1\CCCc2sccc21`: at Thromboxane-A synthase [1], inhibition was half-maximal at 1.26 µM (IC50). Against the preceding compound, the IC50 is about 2.8-fold lower.

On to `c1cn(CCC2CCCc3occc32)cn1` (stereo unspecified), for which, at Thromboxane-A synthase [1], the IC50 came to 1.01 µM.

Regarding `c1cnc2c(c1)C(Cn1ccnc1)CCC2` (stereo unspecified), half-maximal inhibition against Thromboxane-A synthase [1] (IC50) required 2 µM. In addition, the inhibition at 125 µM in assay [2] is 11%.

With `C(/Cn1ccnc1)=C1/CCCc2sccc21`, the IC50 against Thromboxane-A synthase [1] amounted to 1.7 µM.

At Thromboxane-A synthase [1], `c1cc(CCn2ccnc2)c2ccsc2c1` yielded an IC50 of 5.3 µM.
